Laboratory results taken from publication PMC3901432 (Bioorganic & medicinal chemistry letters, 2013).

Experiments:
human mGlu1 = human mGlu1 (Homo sapiens, UniProt Q13255); test: Calcium mobilization mGlu1 assay; assay type: cell-based; settings: for LLE: ligand-lipophilicity efficiency = pIC50−cLogP; for mGlu1 antagonism (in words): up to the top concentration of 30 μM
CYP3A4 = CYP3A4 (Homo sapiens, UniProt P08684); test: Cytochrome P450 inhibition assay in pooled human liver microsomes; assay type: in vitro ADME
mGlu2 = mGlu2 (Homo sapiens, UniProt Q14416); test: mGlu selectivity cell based functional assay; settings: tested at 10 μM
mGlu3 = mGlu3 (Homo sapiens, UniProt Q14832); test: mGlu selectivity cell based functional assay; settings: tested at 10 μM
mGlu4 = mGlu4 (Homo sapiens, UniProt Q14833); test: mGlu selectivity cell based functional assay; settings: tested at 10 μM
mGlu6 = mGlu6 (Homo sapiens, UniProt O15303); test: mGlu selectivity cell based functional assay; settings: tested at 10 μM
mGlu7 = mGlu7 (Homo sapiens, UniProt Q14831); test: mGlu selectivity cell based functional assay; settings: tested at 10 μM
mGlu8 = mGlu8 (Homo sapiens, UniProt O00222); test: mGlu selectivity cell based functional assay; settings: tested at 10 μM
mGlu8, sequence (O00222 34-908): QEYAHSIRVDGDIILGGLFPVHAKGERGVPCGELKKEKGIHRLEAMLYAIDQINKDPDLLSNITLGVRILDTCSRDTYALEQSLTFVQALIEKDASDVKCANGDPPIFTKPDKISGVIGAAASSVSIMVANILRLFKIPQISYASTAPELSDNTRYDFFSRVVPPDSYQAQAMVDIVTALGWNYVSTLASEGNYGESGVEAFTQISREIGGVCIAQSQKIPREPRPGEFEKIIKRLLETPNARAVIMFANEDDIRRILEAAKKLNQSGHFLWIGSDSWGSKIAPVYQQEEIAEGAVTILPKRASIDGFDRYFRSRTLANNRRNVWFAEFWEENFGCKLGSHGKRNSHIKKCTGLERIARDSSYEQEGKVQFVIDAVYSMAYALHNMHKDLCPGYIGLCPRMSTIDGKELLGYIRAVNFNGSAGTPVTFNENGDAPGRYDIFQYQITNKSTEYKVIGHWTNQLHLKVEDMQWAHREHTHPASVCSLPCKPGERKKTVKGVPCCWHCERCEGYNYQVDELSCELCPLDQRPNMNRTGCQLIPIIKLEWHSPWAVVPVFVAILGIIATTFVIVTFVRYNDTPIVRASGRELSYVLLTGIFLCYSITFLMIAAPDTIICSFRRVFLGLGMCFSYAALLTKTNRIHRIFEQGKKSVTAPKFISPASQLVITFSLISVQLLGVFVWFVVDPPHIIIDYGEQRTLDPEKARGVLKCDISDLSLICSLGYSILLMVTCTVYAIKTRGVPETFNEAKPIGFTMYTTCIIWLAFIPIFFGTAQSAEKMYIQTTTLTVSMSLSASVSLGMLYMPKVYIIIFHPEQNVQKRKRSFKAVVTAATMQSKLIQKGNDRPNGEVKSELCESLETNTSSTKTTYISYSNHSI

human mGlu1, sequence (Q13255 19-1194): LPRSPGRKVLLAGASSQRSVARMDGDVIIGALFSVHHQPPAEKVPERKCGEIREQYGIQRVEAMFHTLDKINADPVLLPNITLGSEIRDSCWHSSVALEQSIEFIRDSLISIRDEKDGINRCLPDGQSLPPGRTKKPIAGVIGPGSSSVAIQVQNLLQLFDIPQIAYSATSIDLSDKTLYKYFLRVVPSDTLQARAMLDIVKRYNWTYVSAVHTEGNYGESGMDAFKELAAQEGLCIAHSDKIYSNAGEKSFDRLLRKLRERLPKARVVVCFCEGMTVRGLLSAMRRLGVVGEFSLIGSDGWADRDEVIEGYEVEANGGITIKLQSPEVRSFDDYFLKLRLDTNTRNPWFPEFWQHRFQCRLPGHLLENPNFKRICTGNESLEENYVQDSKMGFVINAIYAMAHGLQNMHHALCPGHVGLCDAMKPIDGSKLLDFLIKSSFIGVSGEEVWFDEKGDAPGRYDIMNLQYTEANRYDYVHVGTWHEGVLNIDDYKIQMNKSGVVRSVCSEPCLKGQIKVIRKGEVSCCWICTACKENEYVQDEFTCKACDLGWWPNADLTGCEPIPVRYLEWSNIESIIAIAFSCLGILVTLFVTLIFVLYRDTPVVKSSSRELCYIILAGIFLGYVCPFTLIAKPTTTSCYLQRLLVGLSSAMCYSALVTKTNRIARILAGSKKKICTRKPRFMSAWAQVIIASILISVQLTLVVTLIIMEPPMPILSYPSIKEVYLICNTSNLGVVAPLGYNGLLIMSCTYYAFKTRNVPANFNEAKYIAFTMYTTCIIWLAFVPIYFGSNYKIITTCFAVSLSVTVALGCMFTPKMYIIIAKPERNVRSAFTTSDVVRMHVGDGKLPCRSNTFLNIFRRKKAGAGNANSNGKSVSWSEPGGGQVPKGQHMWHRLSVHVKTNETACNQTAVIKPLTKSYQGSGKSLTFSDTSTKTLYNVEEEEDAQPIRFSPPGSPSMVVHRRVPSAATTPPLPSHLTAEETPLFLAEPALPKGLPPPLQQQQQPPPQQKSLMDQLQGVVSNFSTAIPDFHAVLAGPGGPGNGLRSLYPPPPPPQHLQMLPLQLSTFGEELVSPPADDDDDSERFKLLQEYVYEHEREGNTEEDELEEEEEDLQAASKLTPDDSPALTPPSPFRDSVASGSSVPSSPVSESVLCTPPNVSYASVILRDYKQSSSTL
mGlu4, sequence (Q14833 33-912): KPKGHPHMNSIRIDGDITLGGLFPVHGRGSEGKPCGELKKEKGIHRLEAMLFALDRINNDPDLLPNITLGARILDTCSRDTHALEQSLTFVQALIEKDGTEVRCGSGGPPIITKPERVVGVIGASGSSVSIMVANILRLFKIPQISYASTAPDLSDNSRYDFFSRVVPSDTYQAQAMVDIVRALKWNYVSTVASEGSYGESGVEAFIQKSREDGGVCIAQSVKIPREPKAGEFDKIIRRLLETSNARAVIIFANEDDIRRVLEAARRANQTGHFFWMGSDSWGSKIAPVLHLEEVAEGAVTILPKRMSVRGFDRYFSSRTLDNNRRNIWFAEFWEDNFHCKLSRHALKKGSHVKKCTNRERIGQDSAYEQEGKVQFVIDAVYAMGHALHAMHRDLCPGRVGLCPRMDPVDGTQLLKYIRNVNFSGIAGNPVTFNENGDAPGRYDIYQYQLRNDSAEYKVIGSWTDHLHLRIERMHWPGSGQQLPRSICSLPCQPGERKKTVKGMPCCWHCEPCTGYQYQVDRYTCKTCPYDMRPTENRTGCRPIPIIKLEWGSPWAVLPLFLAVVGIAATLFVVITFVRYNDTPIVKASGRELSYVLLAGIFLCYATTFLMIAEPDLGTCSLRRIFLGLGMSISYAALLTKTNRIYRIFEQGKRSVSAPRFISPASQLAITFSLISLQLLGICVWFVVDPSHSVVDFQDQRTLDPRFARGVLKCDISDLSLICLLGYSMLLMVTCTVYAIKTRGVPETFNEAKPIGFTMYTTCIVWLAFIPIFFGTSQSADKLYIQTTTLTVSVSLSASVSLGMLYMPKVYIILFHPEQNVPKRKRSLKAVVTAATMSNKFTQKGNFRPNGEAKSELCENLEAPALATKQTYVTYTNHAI
mGlu2, sequence (Q14416 19-872): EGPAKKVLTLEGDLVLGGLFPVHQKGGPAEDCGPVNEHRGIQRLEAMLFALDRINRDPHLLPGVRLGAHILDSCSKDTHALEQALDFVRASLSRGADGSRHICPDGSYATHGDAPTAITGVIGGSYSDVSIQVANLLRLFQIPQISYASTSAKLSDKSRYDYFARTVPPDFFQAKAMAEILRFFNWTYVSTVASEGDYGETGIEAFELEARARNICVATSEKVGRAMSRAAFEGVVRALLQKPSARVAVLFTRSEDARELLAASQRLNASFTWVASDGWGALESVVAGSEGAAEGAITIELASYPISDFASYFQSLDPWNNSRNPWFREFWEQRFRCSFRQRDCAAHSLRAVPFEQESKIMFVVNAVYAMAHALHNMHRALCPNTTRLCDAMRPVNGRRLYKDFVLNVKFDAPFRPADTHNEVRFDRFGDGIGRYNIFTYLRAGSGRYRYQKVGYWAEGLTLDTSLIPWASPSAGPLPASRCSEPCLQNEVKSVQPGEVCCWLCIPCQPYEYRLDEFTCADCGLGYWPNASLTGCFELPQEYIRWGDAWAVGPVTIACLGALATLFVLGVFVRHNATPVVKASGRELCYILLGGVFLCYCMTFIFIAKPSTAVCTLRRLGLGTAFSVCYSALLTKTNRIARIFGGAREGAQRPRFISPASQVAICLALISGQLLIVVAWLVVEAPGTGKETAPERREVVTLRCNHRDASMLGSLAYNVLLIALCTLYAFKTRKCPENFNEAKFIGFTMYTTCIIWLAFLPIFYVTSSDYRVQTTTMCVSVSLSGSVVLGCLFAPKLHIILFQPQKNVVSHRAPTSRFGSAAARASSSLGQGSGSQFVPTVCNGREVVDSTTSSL
CYP3A4, sequence (P08684 whole entry): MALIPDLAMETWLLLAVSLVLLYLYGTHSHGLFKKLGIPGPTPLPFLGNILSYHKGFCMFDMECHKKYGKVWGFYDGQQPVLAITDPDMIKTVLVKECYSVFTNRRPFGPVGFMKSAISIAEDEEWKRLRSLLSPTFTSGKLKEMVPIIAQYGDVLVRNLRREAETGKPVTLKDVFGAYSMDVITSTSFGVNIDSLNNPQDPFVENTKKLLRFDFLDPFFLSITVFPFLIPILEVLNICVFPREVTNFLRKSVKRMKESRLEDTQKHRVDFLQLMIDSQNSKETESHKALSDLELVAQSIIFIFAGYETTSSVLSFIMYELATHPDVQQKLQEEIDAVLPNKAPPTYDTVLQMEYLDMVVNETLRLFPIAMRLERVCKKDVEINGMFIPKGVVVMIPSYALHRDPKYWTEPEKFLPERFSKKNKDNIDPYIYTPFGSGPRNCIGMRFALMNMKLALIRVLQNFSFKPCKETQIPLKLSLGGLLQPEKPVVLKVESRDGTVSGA

| SMILES | LLE (human mGlu1) | mGlu1 antagonism (in words) (human mGlu1) | mGlu1 potency relative to 8 (fold less potent) (human mGlu1) | further results |
| --- | --- | --- | --- | --- |
| O=C(N1C[C@@H]2CN(c3ccccn3)C[C@@H]2C1)C12CC3CC(CC(C3)C1)C2 [Compound 8] | 2.79 |  |  | human mGlu1 potency relative to 1 (fold more potent) (human mGlu1): greater than seven fold; CYP3A4 inhibition (in words) (CYP3A4): moderate inhibitors; activity at mGlu2 (mGlu2): no activity; activity at mGlu3 (mGlu3): no activity; activity at mGlu4 (mGlu4): no activity; activity at mGlu6 (mGlu6): very weak and marginal activity; activity at mGlu7 (mGlu7): very weak and marginal activity; activity at mGlu8 (mGlu8): very weak and marginal activity |
| N#Cc1ccccc1N1C[C@H]2CN(C(=O)C34CC5CC(CC(C5)C3)C4)C[C@H]2C1 [Compound 30] | 2.18 |  |  |  |
| O=C(N1C[C@@H]2CN(c3ccncn3)C[C@@H]2C1)C12CC3CC(CC(C3)C1)C2 [Compound 25] |  | only weak antagonists |  |  |
| CC1(C(=O)N2C[C@@H]3CN(c4ccccn4)C[C@@H]3C2)CCCCC1 [Compound 14] |  |  | sixty |  |
| O=C(N1C[C@@H]2CN(c3cnccn3)C[C@@H]2C1)C12CC3CC(CC(C3)C1)C2 [Compound 26] | 1.21 |  | eight fold |  |
| N#Cc1ccncc1N1C[C@H]2CN(C(=O)C34CC5CC(CC(C5)C3)C4)C[C@H]2C1 [Compound 32] |  | moderate potency |  |  |
| O=C(N1C[C@@H]2CN(c3cccc(F)n3)C[C@@H]2C1)C12CC3CC(CC(C3)C1)C2 [Compound 27] | 2.50 |  | equipotent |  |
| CC(C)(C)C(=O)N1C[C@@H]2CN(c3ccccn3)C[C@@H]2C1 [Compound 9] |  | inactive |  |  |
| C[C@@H]1CN(c2cccnc2C#N)CCN1C(=O)C12CC3CC(CC(C3)C1)C2 [VU0469650, reference compound] |  |  |  | CYP3A4 inhibition (in words) (CYP3A4): moderate inhibitors |
| N#Cc1ncccc1N1C[C@H]2CN(C(=O)C34CC5CC(CC(C5)C3)C4)C[C@H]2C1 [Compound 34] | 2.87 | moderate potency |  |  |
| O=C(N1C[C@@H]2CN(c3ncccn3)C[C@@H]2C1)C12CC3CC(CC(C3)C1)C2 [Compound 24] |  | only weak antagonists |  |  |
| O=C(N1C[C@@H]2CN(c3ccccn3)C[C@@H]2C1)N1CCC2(CCCC2)C1 [Compound 38] | 4.12 |  | three fold | activity at mGlu2 (mGlu2): no activity; activity at mGlu3 (mGlu3): no activity; activity at mGlu4 (mGlu4): no activity; activity at mGlu6 (mGlu6): very weak and marginally significant activity; activity at mGlu7 (mGlu7): no activity; activity at mGlu8 (mGlu8): very weak and marginally significant activity |
| O=C(N1CCC2(CCCCC2)CC1)N1C[C@@H]2CN(c3ccccn3)C[C@@H]2C1 [Compound 40] | 2.71 |  |  |  |
| O=C(N1C[C@@H]2CN(c3nccs3)C[C@@H]2C1)C12CC3CC(CC(C3)C1)C2 [Compound 23] |  | only weak antagonists |  |  |
| O=C(N1C[C@@H]2CN(c3ccc(F)cn3)C[C@@H]2C1)C12CC3CC(CC(C3)C1)C2 [Compound 28] | 1.88 |  | six fold |  |
| CC(C)(C)CC(=O)N1C[C@@H]2CN(c3ccccn3)C[C@@H]2C1 [Compound 16] |  | inactive |  |  |
| O=C(N1C[C@@H]2CN(c3ncccc3F)C[C@@H]2C1)C12CC3CC(CC(C3)C1)C2 [Compound 29] |  |  | 12 fold |  |
